Measurements from PubChem BioAssay (NCI).
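Each compound was tested at five concentrations against cells in 96-well plates for 48 hours. GI50 is the concentration that inhibits growth by half. TGI marks complete inhibition of growth.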

What was measured:
Test in all cases: DTP human tumour cell line panel, 48 h
BT-549 breast = test system: BT-549 breast
K-562 leukemia = test system: K-562 leukemia
LOX IMVI melanoma = test system: LOX IMVI melanoma
SF-295 CNS = test system: SF-295 CNS
M14 melanoma = test system: M14 melanoma
A549 NSCLC = test system: A549 NSCLC
A498 renal = test system: A498 renal
SNB-19 CNS = test system: SNB-19 CNS
OVCAR-8 ovarian = test system: OVCAR-8 ovarian
SNB-75 CNS = test system: SNB-75 CNS
DU-145 prostate = test system: DU-145 prostate
SR leukemia = test system: SR leukemia
MDA-MB-231 breast = test system: MDA-MB-231 breast
SK-MEL-28 melanoma = test system: SK-MEL-28 melanoma
SN12C renal = test system: SN12C renal
HOP-62 NSCLC = test system: HOP-62 NSCLC
CCRF-CEM leukemia = test system: CCRF-CEM leukemia
RXF 393 renal = test system: RXF 393 renal
SF-268 CNS = test system: SF-268 CNS
RPMI-8226 leukemia = test system: RPMI-8226 leukemia
NCI-H23 lung = test system: NCI-H23 lung
HOP-92 NSCLC = test system: HOP-92 NSCLC
UACC-62 melanoma = test system: UACC-62 melanoma
UO-31 renal = test system: UO-31 renal
UACC-257 melanoma = test system: UACC-257 melanoma
MDA-MB-435 = test system: MDA-MB-435
SF-539 CNS = test system: SF-539 CNS
HS 578T breast = test system: HS 578T breast
786-0 renal = test system: 786-0 renal

O=C1/C(=C/c2ccc(Cl)cc2)CN(Cc2cn(CCNc3ccnc4cc(Cl)ccc34)nn2)C/C1=C\c1ccc(Cl)cc1
TGI (BT-549 breast): 1440 nM
GI50 (K-562 leukemia): 302 nM
TGI (K-562 leukemia): 1080 nM
GI50 (LOX IMVI melanoma): 189 nM
TGI (LOX IMVI melanoma): 350 nM
GI50 (SF-295 CNS): 222 nM
TGI (SF-295 CNS): 541 nM
GI50 (M14 melanoma): 560 nM
TGI (M14 melanoma): 2210 nM
GI50 (A549 NSCLC): 284 nM
TGI (A549 NSCLC): 834 nM
GI50 (A498 renal): 1140 nM
TGI (A498 renal): 2370 nM
GI50 (SNB-19 CNS): 319 nM
TGI (SNB-19 CNS): 1270 nM
GI50 (OVCAR-8 ovarian): 367 nM
TGI (OVCAR-8 ovarian): 1430 nM
GI50 (SNB-75 CNS): 1220 nM
TGI (SNB-75 CNS): 2630 nM
GI50 (DU-145 prostate): 426 nM
TGI (DU-145 prostate): 1380 nM
GI50 (SR leukemia): 245 nM
TGI (SR leukemia): 815 nM
GI50 (MDA-MB-231 breast): 293 nM
TGI (MDA-MB-231 breast): 966 nM
GI50 (SK-MEL-28 melanoma): 1400 nM
TGI (SK-MEL-28 melanoma): 2810 nM
GI50 (SN12C renal): 1080 nM
TGI (SN12C renal): 3380 nM
GI50 (HOP-62 NSCLC): 272 nM
TGI (HOP-62 NSCLC): 729 nM
GI50 (CCRF-CEM leukemia): 309 nM
TGI (CCRF-CEM leukemia): > 100000 nM
GI50 (RXF 393 renal): 201 nM
TGI (RXF 393 renal): 416 nM
GI50 (SF-268 CNS): 270 nM
TGI (SF-268 CNS): 786 nM
GI50 (RPMI-8226 leukemia): 272 nM
TGI (RPMI-8226 leukemia): 1050 nM
GI50 (NCI-H23 lung): 761 nM
TGI (NCI-H23 lung): 2310 nM
GI50 (HOP-92 NSCLC): 496 nM
TGI (HOP-92 NSCLC): 1830 nM
GI50 (UACC-62 melanoma): 528 nM
TGI (UACC-62 melanoma): 1920 nM
GI50 (UO-31 renal): 242 nM
TGI (UO-31 renal): 698 nM
GI50 (UACC-257 melanoma): 1590 nM
TGI (UACC-257 melanoma): 3020 nM
GI50 (MDA-MB-435): 326 nM
TGI (MDA-MB-435): 1080 nM
GI50 (SF-539 CNS): 264 nM
TGI (SF-539 CNS): 742 nM
GI50 (HS 578T breast): 724 nM
TGI (HS 578T breast): 13500 nM
GI50 (786-0 renal): 247 nM
TGI (786-0 renal): 616 nM
